The values that follow are results of earlier work, collected in PMC8763792, “Pharmacokinetic/Pharmacodynamic Based Breakpoints of Polymyxin B for Bloodstream Infections Caused by Multidrug-Resistant Gram-Negative Pathogens” (Frontiers in Pharmacology, 2022).

Like-named read-outs stand apart in the source and are kept apart here. Positions of bridges follow the written chain, without caps; N, C: chain ends. Non-standard residues stand in square brackets, D forms with d. Residues, ends and D or L forms follow the SMILES beside them. *: point of attachment. X1 = CC[C@H](C)CCCCC(=O)*; Dab = NCC[C@H](N)C(=O)O

The subject of series [1] is K. pneumoniae. Particulars: dash in Table S1 explained, ref Landersdorfer, C.B., 2018. An excerpt: Supplement DataSheet1.zip/Table 1.DOCX, table 1: Table S1.
How the values of series [2] were obtained:
The area under the unbound concentration-time curve over 24 h to the MIC ratio (fAUC0–24h/MIC) is the most predictive PK/PD index for polymyxins ([Tam et al., 2005]; [Bergen et al., 2008]; [Bergen et al., 2010]; [Cheah et al., 2015]; [Landersdorfer et al., 2018]). PK/PD targets of 1-log10 CFU and 2-log10 CFU reductions in colony forming units (CFU)/thigh were derived from dose-fractionation studies of polymyxin B (K. pneumoniae) and colistin (P. aeruginosa and A. baumannii) in murine thigh infection models (Supplementary Table S1; [Cheah et al., 2015]; [Landersdorfer et al., 2018]). Given poly ... || The recommended dose of intravenously administered polymyxin B throughout much of the world is 1.5–2.5 mg/kg/day with a loading dose of 2–2.5 mg/kg ([Tsuji et al., 2019]). In China, the only brand of polymyxin B currently available has a recommended intravenous dose of 50–100 mg/day (Polymyxin B for injection ([Daily Med, 2017]), equivalent to 0.83–1.66 mg/kg/day (0.42–0.83 mg/kg/12 h) for a 60 kg patient. Importantly, [Lakota et al. (2018)] proposed that for pathogens with MICs ≤2 mg/L, the target AUC0–24h,ss for polymyxin B should be 50–100 mg h/L. In our study, the polymyxin B AUC0–24h,ss a ...

The conditions of series [3]: critically-ill patients, ref Sandri et al., 2013, Nation et al., 2017. Here is the method: Removal of the “susceptible” interpretation category for polymyxins by CLSI was driven primarily by lung infection data ([He et al., 2013]; [Landersdorfer et al., 2018]). […] For bloodstream infections, the average steady-state concentrations (C ss,avg) achieved with intravenously administered polymyxin B (0.45–3.38 mg/kg/day) or CMS (2–18 MIU/day) are 2–3 mg/L (polymyxin B and colistin) in critically-ill p ...

For series [4], the system named is extensively-drug resistant Gram-negative bacteria. Particulars: polymyxin B-based regimens 100-200 mg/day, ≥5 days; bloodstream infection; ref Zhao et al., 2020. An excerpt: This is in agreement with othe ...
The subject of series [5] is A. baumannii or A. calcoaceticus. The settings on record: 3,124 isolates, 45 nations, 1997-2016; ref Diekema et al., 2019. An excerpt:
(§1) However, the success of this regimen will depend on regional susceptibility data. According to the SENTRY antimicrobial surveillance program for bloodstream infections (data collected from 45 nations including China between 1997 and 2016) ([Diekema et al., 2019]), the MIC90 of colistin for P. aeruginosa (7,107 isolates), A. baumannii or A. calcoaceticus ...

Series [6] concerns Enterobacteriaceae. Particulars: 54,476 isolates, 45 nations, 1997-2016; ref Diekema et al., 2019.
From the text: as §1

Series [7] deals with P. aeruginosa. Particulars: 7,107 isolates, 45 nations, 1997-2016; ref Diekema et al., 2019.
From the text: as §1

In the case of `CC[C@H](C)CCCCC(=O)N[C@@H](CCN)C(=O)N[C@H](C(=O)N[C@@H](CCN)C(=O)N[C@H]1CCNC(=O)[C@H]([C@@H](C)O)NC(=O)[C@H](CCN)NC(=O)[C@H](CCN)NC(=O)[C@H](CC(C)C)NC(=O)[C@@H](Cc2ccccc2)NC(=O)[C@H](CCN)NC1=O)[C@@H](C)O` [polymyxin B] (X1-[Dab]T[Dab][Dab][Dab][dF]L[Dab][Dab]T; lactam 4-C (inferred); N-terminus assumed), the “PK/PD target fAUC0-24h/MIC, 2-log10 CFU killing” value in series [1] was “unable to produce a 2-log10 CFU decrease”. For the same compound, in series [2] (plasma, ref Sandri et al., 2013), the “Unbound fraction (f) in plasma” value is reported as 42%. The Protein binding in series [2] (ref Zavascki et al., 2008) is 78.5–92.4%. Besides, in series [3] (intravenous polymyxin B 0.45-3.38 mg/kg/day), the “Average steady-state concentration (Css,avg)” value is 2000 to 3000 ng/mL. Moreover, in series [4], the 28-day all-cause mortality is reported as 41.0%, the “Clearance rate of microorganisms” value is 65.2% and the “Overall effectiveness (cure or improvement)” value is listed as 59.0%.
A word on the MIC90: it is the lowest concentration that inhibits either 90% of growth or 90% of the strains tested, depending on the study. Turning to colistin, the “Average steady-state concentration (Css,avg)” value in series [3] (colistin after intravenous CMS 2-18 MIU/day) is 2000 to 3000 ng/mL. For the same compound, the MIC90 in series [5] was 2 µg/mL; in series [6], > 4 µg/mL; in series [7], 2 µg/mL.
